Results as given in patent US9453034B2, “C2-azaspiro iminothiazine dioxides as BACE inhibitors, compositions, and their use” (Merck Sharp & Dohme Corp., priority 2013, dated 2016).

Legend:
[1] = biological target: soluble human BACE1 catalytic domain (Homo sapiens (Human), UniProt P56817); experiment: BACE1 HTRF FRET Assay; type: biochemical; conditions: Ki calculated from IC50 using the Cheng-Prusoff equation; QSY7-APPswe-Eu substrate, pH 5.0
From the text: Reagents: Na^+-Acetate pH 5.0; 1% Brij-35; Glycerol; Dimethyl Sulfoxide (DMSO);
A homogeneous time-resolved FRET assay can be used to determine IC50 values for inhibitors of the soluble human BACE1 catalytic domain. This assay monitors the increase of 620 nm fluorescence that resulted from BACE1 cleavage of an APPswedish APP^swe mutant peptide FRET substrate (QSY7-[…]-Europium-amide). This substrate contains an N-terminal QSY7 moiety that serves as a quencher of the C-terminal Europium fluorophore (620 nm Em). […] Inhibition of BACE1 cleavage of the QSY7-APP^swe-Eu substrate by inhibitors is manifested as a suppression of 620 nm fluorescence.
Reactions are initiated by addition of 10 μl of 600 nM QSY7-APP^swe-Eu substrate (200 nM final) to give a final reaction volume of 30 μl in a 384 well Nunc HTRF plate. The reactions are incubated at 30° C. for 1.5 hours. The 620 nm fluorescence is then read on a Rubystar HTRF plate reader (BMG Labtechnologies) using a 50 millisecond delay followed by a 400 millisecond acquisition time window. Inhibitor IC50 values are derived from non-linear regression analysis of concentration response curves.

[2] = biological target: purified human autoBACE-2 (Homo sapiens (Human), UniProt Q9Y5Z0); experiment: BACE-2 Assay (BACE-HTRF assay); type: biochemical; conditions: Ki calculated from IC50 using the Cheng-Prusoff equation; QSY7-EISEVNLDAEFC-Eu-amide substrate, pH 5.0; read-out: BACE2 Ki
Method: Inhibitor IC50s at purified human autoBACE-2 are determined in a time-resolved endpoint proteolysis assay that measures hydrolysis of the QSY7-EISEVNLDAEFC-Eu-amide FRET peptide substrate (BACE-HTRF assay). BACE-mediated hydrolysis of this peptide results in an increase in relative fluorescence (RFU) at 620 nm after excitation with 320 nm light. Inhibitor compounds, prepared at 3× the desired final concentration in 1×BACE assay buffer (20 mM sodium acetate pH 5.0, 10% glycerol, 0.1% Brij-35) supplemented with 7.5% DMSO are pre-incubated with an equal volume of autoBACE-2 enzyme diluted in 1×BACE assay buffer (final enzyme concentration 1 nM) in black 384-well NUNC plates for 30 minutes at 30° C. The assay is initiated by addition of an equal volume of the QSY7-EISEVNLDAEFC-Eu-amide substrate (200 nM final concentration, Km=8 μM […] for autoBACE-2) prepared in 1×BACE assay buffer supplemented with 7.5% DMSO and incubated for 90 minutes at 30° C. DMSO is present at 5% final concentration in the assay. Following laser excitation of sample wells at 320 nm, the fluorescence signal at 620 nm is collected for 400 ms following a 50 μs delay on a RUBYstar HTRF plate reader (BMG Labtechnologies). Raw RFU data is normalized to maximum (1.0 nM BACE/DMSO) and minimum (no enzyme/DMSO) RFU values. IC50s are determined by nonlinear regression analysis (sigmoidal dose response, variable slope) of percent inhibition data with minimum and maximum values set to 0 and 100 percent respectively. Similar IC50s are obtained when using raw RFU data. The Ki values are calculated from the IC50 using the Cheng-Prusoff equation.

Chain of purified human autoBACE-2 (Q9Y5Z0 63-473): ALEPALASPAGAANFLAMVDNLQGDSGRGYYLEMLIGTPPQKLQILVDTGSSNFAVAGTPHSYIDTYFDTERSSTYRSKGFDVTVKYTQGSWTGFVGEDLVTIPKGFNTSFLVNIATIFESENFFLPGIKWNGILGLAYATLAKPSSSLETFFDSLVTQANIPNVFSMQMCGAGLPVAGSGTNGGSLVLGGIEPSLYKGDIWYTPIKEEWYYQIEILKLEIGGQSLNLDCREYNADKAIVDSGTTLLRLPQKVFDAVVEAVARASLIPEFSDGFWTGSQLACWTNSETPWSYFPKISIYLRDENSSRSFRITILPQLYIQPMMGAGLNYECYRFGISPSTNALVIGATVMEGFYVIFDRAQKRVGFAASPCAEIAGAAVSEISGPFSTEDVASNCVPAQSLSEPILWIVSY
Chain of soluble human BACE1 catalytic domain (P56817 75-416): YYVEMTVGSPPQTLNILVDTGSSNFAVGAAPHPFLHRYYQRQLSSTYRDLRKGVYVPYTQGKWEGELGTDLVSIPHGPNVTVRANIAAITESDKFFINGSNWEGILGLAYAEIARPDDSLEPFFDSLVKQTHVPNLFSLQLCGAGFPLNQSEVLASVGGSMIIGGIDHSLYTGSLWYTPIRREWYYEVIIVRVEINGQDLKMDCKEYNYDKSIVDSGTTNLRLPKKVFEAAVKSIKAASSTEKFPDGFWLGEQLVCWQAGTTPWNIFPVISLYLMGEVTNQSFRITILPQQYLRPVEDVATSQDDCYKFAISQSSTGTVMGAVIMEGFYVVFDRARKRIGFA

SMILES | Ki [1] | Ki [2]
CN1CCC2(CC1)C(=N)N[C@](C)(c1cc(NC(=O)c3ccc(OCF)cn3)ccc1F)CS2(=O)=O [Example 32, N-{4-fluoro-3-[(3R)-5-imino-3,9-dimethyl-1,1-dioxido-1-thia-4,9-diazaspiro[5.5]undec-3-yl]phenyl}-5-(fluoromethoxy) pyridine-2-carboxamide] | 14 nM | 11 nM
COc1ccc(C(=O)Nc2ccc(F)c([C@]3(C)CS(=O)(=O)C4(CN(S(C)(=O)=O)C4)C(=N)N3)c2)nc1 [Example 38, (R)—N-(4-fluoro-3-(9-imino-7-methyl-2-(methylsulfonyl)-5,5-dioxido-5-thia-2,8-diazaspiro[3.5]nonan-7-yl)phenyl)-5-methoxypicolinamide] | 6.5 nM | 2.3 nM
CN1CCC2(CC1)C(=N)N[C@](C)(c1cc(NC(=O)c3ccc(OC(F)(F)F)cn3)ccc1F)CS2(=O)=O [Example 30] | 15 nM | 52 nM
CN1CCC2(CC1)C(=N)N[C@](C)(c1cc(NC(=O)c3ccc(Cl)cn3)ccc1F)CS2(=O)=O [Example 29, (R)-5-chloro-N-(4-fluoro-3-(5-imino-3,9-dimethyl-1,1-dioxido-1-thia-4,9-diazaspiro[5.5]undecan-3-yl)phenyl)picolinamide] | 12 nM | 3 nM
COc1cnc(C(=O)Nc2ccc(F)c([C@]3(C)CS(=O)(=O)C4(CCN(C)CC4)C(=N)N3)c2)c(C)c1 [Example 33, N-{4-fluoro-3-[(3R)-5-imino-3,9-dimethyl-1,1-dioxido-1-thia-4,9-diazaspiro[5.5]undec-3-yl]phenyl}-5-methoxy-3-methylpyridine-2-carboxamide] | 37 nM | 23 nM
CN1CCC2(CC1)C(=N)N[C@](C)(c1cc(NC(=O)c3ccc(OC(F)F)cn3)ccc1F)CS2(=O)=O [Example 31, 5-(difluoromethoxy)-N-{4-fluoro-3-[(3R)-5-imino-3,9-dimethyl-1,1-dioxido-1-thia-4,9-diazaspiro[5.5]undec-3-yl]phenyl}pyridine-2-carboxamide] | 11 nM | 27 nM
Cc1cc(C#N)cnc1C(=O)Nc1ccc(F)c([C@]2(C)CS(=O)(=O)C3(CNC3)C(=N)N2)c1 [Example 36e, 5-cyano-N-{4-fluoro-3-[(7R)-9-imino-7-methyl-5,5-dioxido-5-thia-2,8-diazaspiro[3.5]non-7-yl]phenyl}-3-methylpyridine-2-carboxamide] | 4.1 nM | 1.8 nM
COc1ccc(C(=O)Nc2ccc(F)c([C@]3(C)CS(=O)(=O)C4(CCN(C)CC4)C(=N)N3)c2)nc1 [Example 27, N-{4-fluoro-3-[(3R)-5-imino-3,9-dimethyl-1,1-dioxido-1-thia-4,9-diazaspiro[5.5]undec-3-yl]phenyl}-5-methoxypyridine-2-carboxamide] | 35 nM | 24 nM
CN1CC2(C1)C(=N)N[C@](C)(c1cc(NC(=O)c3ncc(C#N)cc3C3CC3)ccc1F)CS2(=O)=O [Example 12a, 5-cyano-3-cyclopropyl-N-{4-fluoro-3-[(7R)-9-imino-2,7-dimethyl-5,5-dioxido-5-thia-2,8-diazaspiro [3.5]non-7-yl]phenyl}pyridine-2-carboxamide] | 1.3 nM | 0.8 nM

The remaining lines, values ahead:

Ki [1] | Ki [2] | SMILES
1.7 nM | 1.4 nM | CN1CC2(C1)C(=N)N[C@](C)(c1cc(NC(=O)c3ccc(C#N)cn3)ccc1F)CS2(=O)=O [Example 1, (R)-5-cyano-N-(4-fluoro-3-(9-imino-2,7-dimethyl-5,5-dioxido-5-thia-2,8-diazaspiro[3.5]nonan-7-yl)phenyl)picolinamide]
1.3 nM | 1 nM | Cc1cc(C#N)cnc1C(=O)Nc1ccc(F)c([C@]2(C)CS(=O)(=O)C3(CN(C)C3)C(=N)N2)c1 [Example 11, 5-cyano-N-{4-fluoro-3-[(7R)-9-imino-2,7-dimethyl-5,5-dioxido-5-thia-2,8-diazaspiro[3.5]non-7-yl]phenyl}-3-methylpyridine-2-carboxamide]
6.4 nM | 8.4 nM | CN1CCC2(CC1)C(=N)N[C@](C)(c1cc(NC(=O)c3ccc(C#N)cn3)ccc1F)CS2(=O)=O [Example 25, 5-cyano-N-{4-fluoro-3-[(3R)-5-imino-3,9-dimethyl-1,1-dioxido-1-thia-4,9-diazaspiro[5.5]undec-3-yl]phenyl}pyridine-2-carboxamide]
3.7 nM | 2.6 nM | C[C@@]1(c2cc(NC(=O)c3ccc(C#N)cn3)ccc2F)CS(=O)(=O)C2(CNC2)C(=N)N1 [Example 36c, (R)-5-cyano-N-(4-fluoro-3-(9-imino-7-methyl-5,5-dioxido-5-thia-2,8-diazaspiro[3.5]nonan-7-yl)phenyl)picolinamide]
2.7 nM | 4.3 nM | CN1CC2(C1)C(=N)N[C@](C)(c1cc(NC(=O)c3ccc(OC(F)F)cn3)ccc1F)CS2(=O)=O [Example 7, 5-(difluoromethoxy)-N-{4-fluoro-3-[(7R)-9-imino-2,7-dimethyl-5,5-dioxido-5-thia-2,8-diazaspiro[3.5]non-7-yl]phenyl}pyridine-2-carboxamide]
